The values that follow are results of earlier work, collected in US10624840B2, “Method for performing cosmetic surgical procedures using tumescent anesthesia and oral sedation” (priority 2017, dated 2020).

The data set concerns patient. The note with it: oral.

On to `O=C1Nc2ccc(Cl)cc2C(c2ccccc2Cl)=NC1O` (stereo not shown) [Lorazepam, lorazepam], for which the “duration of lasting effects on a patient” value is 10 to 20 h.
